SMILES strings stand for the structures. ≈ marks a conversion by molar mass, not a printed value.

The subject of series [1] is Mycobacterium tuberculosis. The series can be described thus: Antimycobacterial activity against Mycobacterium tuberculosis H37Rv ATCC 27294 after 5 days by microplate alamar blue assay. Type of series: functional. The note with it: H37Rv ATCC 27294, 120 h.
Series [2] in a line: n-octanol/water partition coefficient, log P of the compound. The series is classed as physicochemical.
Series [3] in a line: Cytotoxicity against African green monkey Vero cells assessed as cell viability at 100 uM by MTT assay relative to control. Type of series: cell-based. The settings on record: chlorocebus sabaeus, read-out: Activity. In general terms: Tetrazolium dyes change colour on reduction, which living cells bring about.

One may read the MIC as the smallest concentration in the dilution series that meets the test's criterion for growth inhibition. As a reminder, the logP is a log measure of how a compound divides between an organic and an aqueous phase. In series [1], `O=C(NNc1ccnc2cc(Cl)ccc12)c1ccccc1/N=C/c1cc2ccccc2nc1Cl` registered an MIC of 25 µM (≈ 12.2 µg/mL). In addition, the logP in series [2] came to 6. Moreover, the viability at 100 µM in series [3] turned out to be 94.3%.
`O=C(NNc1ccnc2cc(Cl)ccc12)c1ccccc1/N=C/c1ccc(O)cc1` returned an MIC in series [1] of 25 µM (≈ 10.4 µg/mL). Also, the logP in series [2] worked out at 4.65. The viability at 100 µM in series [3] came out at 90.1%.
In turn, `COc1cc(/C=N/c2ccccc2C(=O)NNc2ccnc3cc(Cl)ccc23)ccc1Oc1ccnc2cc(Cl)ccc12` returned an MIC in series [1] of 3.12 µM (≈ 1.9 µg/mL). Also, the logP in series [2] was 7.74. Also, in series [3], the viability at 100 µM came to 89.5%.
For `O=C(NNc1ccnc2cc(Cl)ccc12)c1ccccc1/N=C/c1ccc(Cl)c(Cl)c1` the same measures were 25 µM (≈ 11.7 µg/mL), 6.22 and 90.2%.
In series [1], `O=C(NNc1ccnc2cc(Cl)ccc12)c1ccccc1/N=C/c1ccccc1Cl` came in with an MIC of 25 µM (≈ 10.9 µg/mL). In addition, the log partition coefficient (logP) in series [2] was determined as 5.5. Besides, the viability at 100 µM in series [3] worked out at 88.5%.
`NC(=O)c1cnccn1` [PYRAZINAMIDE] displayed an MIC in series [1] of 3.12 µM (≈ 0.384 µg/mL). In addition, in series [2], the logP is -0.71.
On to `Cc1ccc(/C=N/c2ccccc2C(=O)NNc2ccnc3cc(Cl)ccc23)cc1`, for which the lowest concentration to inhibit growth in series [1] (MIC) was 0.78 µM (≈ 0.324 µg/mL). Besides, in series [2], the log partition coefficient (logP) was found to be 5.31. Besides, the viability at 100 µM in series [3] was found to be 87.1%.
The matching figures for `N#Cc1ccc(/C=N/c2ccccc2C(=O)NNc2ccnc3cc(Cl)ccc23)cc1`: 25 µM (≈ 10.6 µg/mL), 4.83 and 87.2%.
`O=C(NNc1ccnc2cc(Cl)ccc12)c1ccccc1/N=C/c1cccs1` had a minimal inhibitory concentration (MIC) in series [1] of 6.25 µM (≈ 2.54 µg/mL). Also, the logP in series [2] is 4.78. Besides, the viability at 100 µM in series [3] was found to be 89.5%.
`CN(C)c1ccc(/C=N/c2ccccc2C(=O)NNc2ccnc3cc(Cl)ccc23)cc1`: the MIC in series [1] is 3.12 µM (≈ 1.39 µg/mL). Besides, the logP in series [2] turned out to be 5.03. In addition, the viability at 100 µM in series [3] came to 88.8%.
For `COc1cc(/C=N/c2ccccc2C(=O)NNc2ccnc3cc(Cl)ccc23)cc(OC)c1OC` the same measures were 6.25 µM (≈ 3.07 µg/mL), 4.94 and 89.4%.
`O=C(NNc1ccnc2cc(Cl)ccc12)c1ccccc1/N=C/c1cccc(Cl)c1Cl`: in series [1], the MIC was determined as 6.25 µM (≈ 2.94 µg/mL). In series [2], this compound had a logP of 6.1. Moreover, the viability at 100 µM in series [3] amounted to 89.1%.
`COc1ccc(/C=N/c2ccccc2C(=O)NNc2ccnc3cc(Cl)ccc23)cc1` returned an MIC in series [1] of 1.56 µM (≈ 0.672 µg/mL). The same compound had a log partition coefficient (logP) in series [2] of 5. In addition, the viability at 100 µM in series [3] worked out at 88.9%.
`O=C(NNc1ccnc2cc(Cl)ccc12)c1ccccc1/N=C/c1ccc(Cl)cc1` gave an MIC in series [1] of 3.12 µM (≈ 1.36 µg/mL). The log partition coefficient (logP) in series [2] turned out to be 5.62. Also, the viability at 100 µM in series [3] was 86.7%.
Consider `O=C(NNc1ccnc2cc(Cl)ccc12)c1ccccc1/N=C/c1cc2ccccc2[nH]c1=O`, for which, in series [1], it took 25 µM (≈ 11.7 µg/mL) to inhibit growth (MIC). The same compound yielded a log partition coefficient (logP) in series [2] of 4.65. The viability at 100 µM in series [3] is 91.1%.
As for `O=C(NNc1ccnc2cc(Cl)ccc12)c1ccccc1/N=C/c1ccc(Br)cc1`, in series [1], the MIC came out at 6.25 µM (≈ 3 µg/mL). In addition, the logP in series [2] was found to be 5.76. In addition, the viability at 100 µM in series [3] was 88.5%.
`O=C(O)c1cn(C2CC2)c2cc(N3CCNCC3)c(F)cc2c1=O` [CIPROFLOXACIN] registered an MIC in series [1] of 12.5 µM (≈ 4.14 µg/mL).
Compound `O=C(NNc1ccnc2cc(Cl)ccc12)c1ccccc1/N=C/c1ccc(F)cc1` displayed an MIC in series [1] of 6.25 µM (≈ 2.62 µg/mL). The same compound gave a logP in series [2] of 5.18. Moreover, the viability at 100 µM in series [3] was 90.7%.
The compound `O=C(NNc1ccnc2cc(Cl)ccc12)c1ccccc1/N=C/c1ccncc1` gave an MIC in series [1] of 25 µM (≈ 10 µg/mL). This compound also yielded a logP in series [2] of 3.86. Besides, the viability at 100 µM in series [3] was 85.7%.
For the compound `O=C(NNc1ccnc2cc(Cl)ccc12)c1ccccc1/N=C/c1ccc(Cl)cc1Cl`, the MIC in series [1] was determined as 6.25 µM (≈ 2.94 µg/mL). The logP in series [2] was determined as 6.22. The viability at 100 µM in series [3] worked out at 87.6%.
The matching figures for `O=C(NNc1ccnc2cc(Cl)ccc12)c1ccccc1/N=C/C=C/c1ccccc1`: 3.12 µM (≈ 1.33 µg/mL), 5.54 and 90.2%.
As for `COc1ccc(/C=N/c2ccccc2C(=O)NNc2ccnc3cc(Cl)ccc23)cc1OC`, the minimal inhibitory concentration (MIC) in series [1] turned out to be 6.25 µM (≈ 2.88 µg/mL). Also, the logP in series [2] amounted to 4.97. For the same compound, the viability at 100 µM in series [3] stood at 89.2%.
Turning to `O=C(NNc1ccnc2cc(Cl)ccc12)c1ccccc1/N=C/c1ccc([N+](=O)[O-])cc1`, in series [1], 25 µM (≈ 11.1 µg/mL) was the least that counted as inhibitory (MIC). In series [2], this compound yielded a logP of 4.58. Besides, in series [3], the viability at 100 µM came out at 88.6%.

Source of the values: ChEMBL document CHEMBL4049401, “Three-component, one-pot synthesis of anthranilamide Schiff bases bearing 4-aminoquinoline moiety as Mycobacterium tuberculosis gyrase inhibitors” (Bioorg Med Chem Lett, 2017).
